Assay results: patent US8916711B2, “Imidazothiazole-chalcone derivatives as potential anticancer agents and process for the preparation thereof” (Council of Scientific and Industrial Research, priority 2009, dated 2014)
Where two headings read alike, the source gives them in different places.

How the values were obtained:
Assay type in all cases: cell-based
SK-MEL-2 = assay: NCI in vitro cytotoxicity (SRB, 48 h), Melanoma panel; conditions: Homo sapiens; SK-MEL-2, Melanoma; 48 h exposure
HS 578T = assay: NCI in vitro cytotoxicity (SRB, 48 h), Breast panel; conditions: Homo sapiens, 48 h exposure
SR = assay: NCI in vitro cytotoxicity (SRB, 48 h), Leukemia panel; conditions: Homo sapiens, 48 h exposure
Method: (§1) The imidazothiazole-chalcone hybrids 7a, 7e, 7f, 8f and 19e have been tested against sixty human tumour cell lines derived from nine cancer types (leukemia, non-small cell lung cancer, colon cancer, CNS cancer, melanoma, ovarian cancer, renal cancer, prostate cancer and breast cancer) as per NCI protocol. For each compound, dose response curves for individual cell lines have been measured at a minimum of five concentrations at 10 fold dilutions. A protocol of 48 h continuous drug exposure has been used, and a sulforhodamine B (SRB) protein assay was used to estimate cell viability or growth. The concentration for 50% cell growth inhibition (GI50), total cell growth inhibition (TGI, 0% growth) and 50% cell death (LC50, […]) compared with the control has been calculated (Table-1).

HL-60(TB) = assay: as above; conditions: Homo sapiens, 48 h exposure
Method: as §1

786-0 = assay: NCI in vitro cytotoxicity (SRB, 48 h), Renal panel; conditions: Homo sapiens; 786-0, Renal; 48 h exposure
SW-620 = assay: NCI in vitro cytotoxicity (SRB, 48 h), Colon panel; conditions: Homo sapiens; SW-620, Colon; 48 h exposure
M14 = assay: NCI in vitro cytotoxicity (SRB, 48 h), Melanoma panel; conditions: Homo sapiens, 48 h exposure
TK-10 = assay: NCI in vitro cytotoxicity (SRB, 48 h), Renal panel; conditions: Homo sapiens; TK-10, Renal; 48 h exposure
CNS cancer cell lines = assay: NCI in vitro cytotoxicity, whole panel; conditions: Homo sapiens; for CC50: read-out: Log10 LC50 (converted)
COLO 205 = assay: NCI in vitro cytotoxicity (SRB, 48 h), Colon panel; conditions: Homo sapiens; COLO 205, Colon; 48 h exposure
Melanoma cell lines = assay: NCI in vitro cytotoxicity, whole panel; conditions: Homo sapiens; for CC50: read-out: Log10 LC50 (converted)
NCI/ADR-RES = assay: NCI in vitro cytotoxicity (SRB, 48 h), Ovarian panel; conditions: Homo sapiens, 48 h exposure
DU-145 = assay: NCI in vitro cytotoxicity (SRB, 48 h), Prostate panel; conditions: Homo sapiens; DU-145, Prostate; 48 h exposure
SNB-19 = assay: NCI in vitro cytotoxicity (SRB, 48 h), CNS panel; conditions: Homo sapiens; SNB-19, CNS; 48 h exposure
K-562 = assay: NCI in vitro cytotoxicity (SRB, 48 h), Leukemia panel; conditions: Homo sapiens, K562; K-562, Leukemia; 48 h exposure
SK-MEL-5 = assay: NCI in vitro cytotoxicity (SRB, 48 h), Melanoma panel; conditions: Homo sapiens; SK-MEL-5, Melanoma; 48 h exposure
EKVX = assay: NCI in vitro cytotoxicity (SRB, 48 h), Non-small cell lung panel; conditions: Homo sapiens, 48 h exposure
PC-3 = assay: NCI in vitro cytotoxicity (SRB, 48 h), Prostate panel; conditions: Homo sapiens; PC-3, Prostate; 48 h exposure
SK-OV-3 = assay: NCI in vitro cytotoxicity (SRB, 48 h), Ovarian panel; conditions: Homo sapiens; SK-OV-3, Ovarian; 48 h exposure
Renal cancer cell lines = assay: NCI in vitro cytotoxicity, whole panel; conditions: Homo sapiens; for CC50: read-out: Log10 LC50 (converted)
[1] = tested on: Prostate cancer cell lines; assay: NCI in vitro cytotoxicity, whole panel; conditions: Homo sapiens; for LC50: read-out: Log10 LC50 (converted)
ACHN = assay: NCI in vitro cytotoxicity (SRB, 48 h), Renal panel; conditions: Homo sapiens, 48 h exposure
T-47D = assay: NCI in vitro cytotoxicity (SRB, 48 h), Breast panel; conditions: Homo sapiens, T47D, 48 h exposure
Colon cancer cell lines = assay: NCI in vitro cytotoxicity, whole panel; conditions: Homo sapiens; for CC50: read-out: Log10 LC50 (converted)
SNB-75 = assay: NCI in vitro cytotoxicity (SRB, 48 h), CNS panel; conditions: Homo sapiens; SNB-75, CNS; 48 h exposure
NCI-H23 = assay: NCI in vitro cytotoxicity (SRB, 48 h), Non-small cell lung panel; conditions: Homo sapiens, 48 h exposure
OVCAR-8 = assay: NCI in vitro cytotoxicity (SRB, 48 h), Ovarian panel; conditions: Homo sapiens
NCI-H460 = assay: NCI in vitro cytotoxicity (SRB, 48 h), Non-small cell lung panel; conditions: Homo sapiens, 48 h exposure
HCC-2998 = assay: NCI in vitro cytotoxicity (SRB, 48 h), Colon panel; conditions: Homo sapiens
OVCAR-5 = assay: NCI in vitro cytotoxicity (SRB, 48 h), Ovarian panel; conditions: Homo sapiens
HOP-62 = assay: NCI in vitro cytotoxicity (SRB, 48 h), Non-small cell lung panel; conditions: Homo sapiens; HOP-62, Non-small cell lung; 48 h exposure
[2] = tested on: Non-small-cell lung cancer cell lines; assay: NCI in vitro cytotoxicity, whole panel; conditions: Homo sapiens; for CC50: read-out: Log10 LC50 (converted)
A498 = assay: NCI in vitro cytotoxicity (SRB, 48 h), Renal panel; conditions: Homo sapiens, 48 h exposure
OVCAR-3 = assay: NCI in vitro cytotoxicity (SRB, 48 h), Ovarian panel; conditions: Homo sapiens; OVCAR-3, Ovarian; 48 h exposure
[3] = CNS cell, exposure period of at least 48 hrs, read-out: GI50, range over CNS cell lines
[4] = CNS, average of six to eight cell lines, read-out: Log10 GI50 (converted)
[5] = CNS, average of six to eight cell lines
[6] = Melanoma, average of six to eight cell lines, read-out: Log10 GI50 (converted)
[7] = Melanoma, average of six to eight cell lines
[8] = exposure period of at least 48 hrs, read-out: GI50, range over melanoma cell lines
[9] = Renal, average of six to eight cell lines, read-out: Log10 GI50 (converted)
[10] = Renal, average of six to eight cell lines
[11] = exposure period of at least 48 hrs, read-out: GI50, range over renal cell lines
[12] = Prostate cell, exposure period of at least 48 hrs, read-out: GI50, range over prostate cell lines
[13] = Prostate, average of the panel's cell lines, read-out: Log10 GI50 (converted)
[14] = Prostate, average of the panel's cell lines
[15] = Colon, average of six to eight cell lines, read-out: Log10 GI50 (converted)
[16] = Colon, average of six to eight cell lines
[17] = exposure period of at least 48 hrs, read-out: GI50, range over colon cell lines
[18] = OVCAR-8, Ovarian, 48 h exposure
[19] = OVCAR-5, Ovarian, 48 h exposure
[20] = Non-small-cell lung, average of six to eight cell lines, read-out: Log10 GI50 (converted)
[21] = Non-small-cell lung, average of six to eight cell lines
[22] = exposure period of at least 48 hrs, read-out: GI50, range over lung cell lines

SMILES: COc1ccc(-c2nc3sccn3c2/C=C/C(=O)c2cc(OC)c(OC)c(OC)c2)cc1 [Compound 7a, (E)-3-(6-(4-methoxyphenyl)imidazo[2,1-b]thiazol-5-yl)-1-(3,4,5-trimethoxyphenyl) prop-2-en-1-one]
- GI50 (SK-MEL-2): 2420 nM
- GI50 (HS 578T): 1900 nM
- GI50 (SR): 2330 nM
- GI50 (HL-60(TB)): 1660 nM
- GI50 (786-0): 2580 nM
- GI50 (SW-620): 3160 nM
- GI50 (M14): 2330 nM
- GI50 (TK-10): 5040 nM
- GI50 (CNS cancer cell lines; [3]): 1660 to 3540 nM
- GI50 (CNS cancer cell lines; [4]): 2630 nM
- CC50 (CNS cancer cell lines; [5]): ≥ 100000 nM
- GI50 (COLO 205): 2520 nM
- GI50 (Melanoma cell lines; [6]): 2630 nM
- CC50 (Melanoma cell lines; [7]): 70800 nM
- GI50 (Melanoma cell lines; [8]): 1300 to 5420 nM
- GI50 (NCI/ADR-RES): 2570 nM
- GI50 (DU-145): 2620 nM
- GI50 (SNB-19): 3540 nM
- GI50 (K-562): 1720 nM
- GI50 (SK-MEL-5): 1300 nM
- GI50 (EKVX): 3120 nM
- GI50 (PC-3): 3100 nM
- GI50 (SK-OV-3): 3280 nM
- GI50 (Renal cancer cell lines; [9]): 2510 nM
- CC50 (Renal cancer cell lines; [10]): ≥ 100000 nM
- GI50 (Renal cancer cell lines; [11]): 1120 to 5040 nM
- GI50 [1, 12]: 2620 to 3100 nM
- GI50 [1, 13]: 2880 nM
- LC50 [1, 14]: ≥ 100000 nM
- GI50 (ACHN): 4080 nM
- GI50 (T-47D): 2260 nM
- GI50 (Colon cancer cell lines; [15]): 2630 nM
- CC50 (Colon cancer cell lines; [16]): 72400 nM
- GI50 (Colon cancer cell lines; [17]): 1770 to 3450 nM
- GI50 (SNB-75): 2290 nM
- GI50 (NCI-H23): 2180 nM
- GI50 (OVCAR-8; [18]): 2010 nM
- GI50 (OVCAR-8; OVCAR-8, ovarian): 2010 nM
- GI50 (NCI-H460): 2700 nM
- GI50 (HCC-2998; HCC-2998, Colon, 48 h exposure): 1770 nM
- GI50 (HCC-2998; HCC-2998, colon): 1770 nM
- GI50 (OVCAR-5; [19]): 1990 nM
- GI50 (OVCAR-5; OVCAR-5, ovarian): 1990 nM
- GI50 (HOP-62): 2210 nM
- GI50 [2, 20]: 1950 nM
- CC50 [2, 21]: 95500 nM
- GI50 [2, 22]: 240 to 3700 nM
- GI50 (A498): 2990 nM
- GI50 (OVCAR-3): 2230 nM

SMILES: COc1cc(C(=O)/C=C/c2c(-c3ccc(F)cc3)nc3sccn23)cc(OC)c1OC [Compound 7e, (E)-3-(6-(4-fluorophenyl)imidazo[2,1-b]thiazol-5-yl)-1-(3,4,5-trimethoxyphenyl)prop-2-en-1-one]
- GI50 (SK-MEL-2): 2520 nM
- GI50 (HS 578T): 2050 nM
- GI50 (SR): 1730 nM
- GI50 (HL-60(TB)): 1770 nM
- GI50 (786-0): 2510 nM
- GI50 (SW-620): 2990 nM
- GI50 (M14): 2750 nM
- GI50 (TK-10): 5810 nM
- GI50 (CNS cancer cell lines; [3]): 1740 to 3730 nM
- GI50 (CNS cancer cell lines; [4]): 2340 nM
- CC50 (CNS cancer cell lines; [5]): 52500 nM
- GI50 (COLO 205): 2790 nM
- GI50 (Melanoma cell lines; [6]): 2630 nM
- CC50 (Melanoma cell lines; [7]): 42700 nM
- GI50 (Melanoma cell lines; [8]): 1820 to 8270 nM
- GI50 (NCI/ADR-RES): 2100 nM
- GI50 (DU-145): 2450 nM
- GI50 (SNB-19): 3730 nM
- GI50 (K-562): 1550 nM
- GI50 (SK-MEL-5): 1450 nM
- GI50 (EKVX): 2740 nM
- GI50 (PC-3): 3430 nM
- GI50 (SK-OV-3): 3020 nM
- GI50 (Renal cancer cell lines; [9]): 1550 nM
- CC50 (Renal cancer cell lines; [10]): 87100 nM
- GI50 (Renal cancer cell lines; [11]): 40 to 5810 nM
- GI50 [1, 12]: 2450 to 3430 nM
- GI50 [1, 13]: 2950 nM
- LC50 [1, 14]: ≥ 100000 nM
- GI50 (ACHN): 2960 nM
- GI50 (T-47D): 3250 nM
- GI50 (Colon cancer cell lines; [15]): 2630 nM
- CC50 (Colon cancer cell lines; [16]): 38000 nM
- GI50 (Colon cancer cell lines; [17]): 2110 to 2990 nM
- GI50 (SNB-75): 2460 nM
- GI50 (NCI-H23): 2490 nM
- GI50 (OVCAR-8; [18]): 1980 nM
- GI50 (NCI-H460): 2300 nM
- GI50 (HCC-2998; HCC-2998, Colon, 48 h exposure): 2110 nM
- GI50 (OVCAR-5; [19]): 1920 nM
- GI50 (HOP-62): 2250 nM
- GI50 [2, 20]: 2240 nM
- CC50 [2, 21]: 56200 nM
- GI50 [2, 22]: 1050 to 3630 nM
- GI50 (A498): 2730 nM
- GI50 (OVCAR-3): 2160 nM
